From US20160297763A1, “Heteroaryl hydroxamic acid derivatives and their use in the treatment, amelioration or prevention of a viral disease” (priority 2011, published 2016)
Like-named read-outs stand apart in the source and are kept apart here.

Assays:
[1] = tested on: influenza A virus A/Aichi/2/68 (H3N2); test: Cytopathic effect (CPE) assay H3N2; assay type: cell-based, influenza A virus (H3N2) on MDCK cells; conditions: for inhibition at 20 µM: H3N2, activity conc 20 (μM per method); for inhibition at 2.5 µM: H3N2, activity conc 2.5 (μM per method); for inhibition at 10 µM: H3N2, activity conc 10 (μM per method)
Procedure: A possible measure of the […] antiviral activity of the compounds having the formula I or II is the CPE assay disclosed herein. […] In this connection, the reduction in the virus-mediated cytopathic effect (CPE) upon treatment with the compounds was calculated as follows: The cell viability of infected-treated and uninfected-treated cells was determined using an ATP-based cell viability assay (Promega). The response in relative luminescent units (RLU) of infected-untreated samples was subtracted from the response (RLU) of the infected-treated samples and then normalized to the viability of the corresponding uninfected sample resulting in % CPE reduction.
The influenza A virus (IAV) was obtained from American Tissue Culture Collection (A/Aichi/2/68 (H3N2); VR-547). Virus stocks were prepared by propagation of virus on Mardin-Darby canine kidney (MDCK; ATCC CCL-34) cells and infectious titres of virus stocks were determined by the 50% tissue culture infective dose (TCID50) analysis as described in Reed, L. J., and H. Muench. 1938, Am. J. Hyg. 27:493-497.
MDCK cells were seeded in 96-well plates at 2×10^4 cells/well using DMEM/Ham's F-12 (1:1) medium containing 10% foetal bovine serum (FBS), 2 mM L-glutamine and 1 antibiotics (all from PAA). Until infection the cells were incubated for 5 hrs at 37° C., 5.0 CO2 to form a ˜80% confluent monolayer on the bottom of the well. Each test compound was dissolved in DMSO and generally tested at 25 μM and 250 μM. In those cases where the compounds were not soluble at that concentration they were tested at the highest soluble concentration. The compounds were diluted in infection medium (DMEM/Ham's F-12 (1:1) containing 5 μg/ml trypsin, and 1% antibiotics) for a final plate well DMSO concentration of 1%. The virus stock was diluted in infection medium (DMEM/Ham's F-12 (1:1) containing 5 μg/ml Trypsin, 1% DMSO, and 1% antibiotics) to a theoretical multiplicity of infection (MOI) of 0.05.
After removal of the culture medium and one washing step with PBS, virus and compound were added together to the cells. In the wells used for cytotoxicity determination (i.e. in the absence of viral infection), no virus suspension was added. Instead, infection medium was added. Each treatment was conducted in two replicates. After incubation at 37° C., 5% CO2 for 48 hrs, each well was observed microscopically for apparent cytotoxicity, precipitate formation, or other notable abnormalities. Then, cell viability was determined using CellTiter-Glo luminescent cell viability assay (Promega). The supernatant was removed carefully and 65 μl of the reconstituted reagent were added to each well and incubated with gentle shaking for 15 min at room temperature. Then, 60 μl of the solution was transferred to an opaque plate and luminescence (RLU) was measured using Synergy HT plate reader (Biotek).
Relative cell viability values of uninfected-treated versus uninfected-untreated cells were used to evaluate cytotoxicity of the compounds. Substances with a relative viability below 80% at the tested concentration were regarded as cytotoxic and retested at lower concentrations.
Reduction in the virus-mediated cytopathic effect (CPE) upon treatment with the compounds was calculated as follows: The response (RLU) of infected-untreated samples was subtracted from the response (RLU) of the infected-treated samples and then normalized to the viability of the corresponding uninfected sample resulting in % CPE reduction.

[2] = target: PB2 cap binding domain (CBD) (Influenza A virus, UniProt Q9Q0V1); test: biochemical; set-up: species or system avian H5N1 influenza virus
Sequence of PB2 cap binding domain (CBD) (Q9Q0V1 318-483 limits assumed): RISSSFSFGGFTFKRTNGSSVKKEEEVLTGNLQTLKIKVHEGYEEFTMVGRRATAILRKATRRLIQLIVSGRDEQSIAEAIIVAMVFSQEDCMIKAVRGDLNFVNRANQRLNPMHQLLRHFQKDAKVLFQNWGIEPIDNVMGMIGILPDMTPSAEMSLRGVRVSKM

[3] = Influenza A virus, read-out: CPE H3N2 reduction (%)
[4] = Influenza A virus, H3N2, activity conc 25 (μM per method), read-out: CPE H3N2 reduction (%)
[5] = Influenza A virus, H3N2, activity conc 50 (μM per method), read-out: CPE H3N2 reduction (%)
[6] = Influenza A virus, H3N2, read-out: CPE H3N2 IC50
[7] = Influenza A virus, H3N2, activity conc 5 (μM per method), read-out: CPE H3N2 reduction (%)
[8] = Influenza A virus, H3N2, read-out: CPE H3N2 reduction (%), activity conc 50 (μM per method)
[9] = Influenza A virus, H3N2, activity conc 2 (μM per method), read-out: CPE H3N2 reduction (%)

COc1ccc(-c2sc3nc(N)[nH]c(=O)c3c2C)cc1 [SAV-7575]
inhibition at 20 µM [1, 3]: 9.02%
Kd [2]: 4 µM

Cc1c(Cc2ccccc2)sc2nc(N)[nH]c(=O)c12 [SAV-7521]
inhibition at 25 µM [1, 4]: 33.6%
Kd [2]: 6 µM

Cc1c(-c2ccc(Cl)cc2F)sc2nc(N)[nH]c(=O)c12 [SAV-7618]
inhibition at 50 µM [1, 5]: 77.4%
IC50 [1, 6]: 43 µM
Kd [2]: 0.65 µM

Cc1c(-c2ccc(Cl)c(C#N)c2)sc2nc(N)[nH]c(=O)c12 [SAV-7602]
inhibition at 20 µM [1, 3]: 67.9%
Kd [2]: 1.7 µM

CC(c1ccccc1)c1cc2c(=O)[nH]c(N)nc2s1 (stereo not shown) [SAV-7604]
inhibition at 20 µM [1, 3]: -4.7%
Kd [2]: 6.4 µM

Cc1c(C2=CCNCC2)sc2nc(N)[nH]c(=O)c12 [SAV-7614]
inhibition at 50 µM [1, 5]: 10.6%
Kd [2]: 190 µM

Cc1c(-c2ccncc2)sc2nc(N)[nH]c(=O)c12 [SAV-7586]
inhibition at 15 µM ([1]; Influenza A virus, H3N2, activity conc 15 (μM per method), read-out: CPE H3N2 reduction (%)): 81.2%
IC50 [1, 6]: 5.3 µM
Kd [2]: 12 µM

Cc1c(-c2cccc(C#N)c2)sc2nc(N)[nH]c(=O)c12 [SAV-7594]
inhibition at 5 µM [1, 7]: 14.5%
IC50 [1, 6]: 14 µM
Kd [2]: 2 µM

Cc1ccccc1-c1sc2nc(N)[nH]c(=O)c2c1C [SAV-7596]
inhibition at 5 µM [1, 7]: 13.6%
Kd [2]: 11 µM

Cc1c(-c2ccc(F)c(C#N)c2F)sc2nc(N)[nH]c(=O)c12 [SAV-7628]
inhibition at 50 µM [1, 5]: 84.3%
IC50 [1, 6]: 43 µM
Kd [2]: 7.3 µM

Cc1c(-c2ccc(Cl)c(F)c2)sc2nc(N)[nH]c(=O)c12 [SAV-7624]
IC50 [1, 6]: 64 µM
Kd [2]: 0.2 µM

Cc1c(-c2ccccc2)sc2nc(NCCN(C)C)[nH]c(=O)c12 [SAV-7583]
Kd [2]: 68 µM

Nc1nc2sc(-c3ccccc3)c(Cl)c2c(=O)[nH]1 [SAV-7639]
inhibition at 50 µM [1, 8]: 59.9%
Kd [2]: 1.8 µM

Cc1ccc(-c2sc3nc(N)[nH]c(=O)c3c2C)cc1 [SAV-7585]
inhibition at 2.5 µM [1, 3]: 28.9%
IC50 [1, 6]: 3.5 µM
Kd [2]: 2 µM

Cc1c(-c2ccc(Cl)cc2)sc2nc(N)[nH]c(=O)c12 [SAV-7579]
inhibition at 20 µM [1, 3]: 11.3%
Kd [2]: 0.27 µM

Cc1c(-c2cccc(CN(C)C)c2)sc2nc(N)[nH]c(=O)c12 [SAV-7629]
inhibition at 50 µM [1, 5]: 38.3%
IC50 [1, 6]: 35 µM
Kd [2]: 61 µM

CC1=C(c2cccc(F)c2)SC2N=C(N)NC(=O)C12 (stereo not shown) [SAV-7606]
inhibition at 5 µM [1, 7]: 21.8%
Kd [2]: 8 µM

Cc1c(-c2cc(C(F)(F)F)cc(C(F)(F)F)c2)sc2nc(N)[nH]c(=O)c12 [SAV-7600]
inhibition at 2 µM ([1]; Influenza A virus, H3N2, read-out: CPE H3N2 reduction (%), activity conc 2 (μM per method)): 5.8%
Kd [2]: 3.8 µM

COc1cc(-c2sc3nc(N)[nH]c(=O)c3c2C)ccc1Cl [SAV-7619]
inhibition at 2 µM [1, 9]: 3.4%
Kd [2]: 1.1 µM

Cc1c(-c2cccc(C(N)=O)c2)sc2nc(N)[nH]c(=O)c12 [SAV-7599]
inhibition at 20 µM [1, 3]: -0.7%
Kd [2]: 5.3 µM

Cc1c(-c2ccc(Cl)c(O)c2)sc2nc(N)[nH]c(=O)c12 [SAV-7622]
inhibition at 2 µM [1, 9]: 6.2%
Kd [2]: 2.4 µM

Nc1nc2sc(-c3ccccc3)c(Br)c2c(=O)[nH]1 [SAV-7631]
inhibition at 5 µM ([1]; Influenza A virus, H3N2, read-out: CPE H3N2 reduction (%), activity conc 5 (μM per method)): 4%
Kd [2]: 0.66 µM

Cc1c(-c2cc(C#N)ccc2F)sc2nc(N)[nH]c(=O)c12 [SAV-7615]
inhibition at 20 µM [1, 3]: 59.2%
IC50 [1, 6]: 12 µM
Kd [2]: 3 µM

Cc1c(-c2ccnc(Cl)c2F)sc2nc(N)[nH]c(=O)c12 [SAV-7633]
inhibition at 50 µM [1, 5]: 63.1%
IC50 [1, 6]: 39 µM
Kd [2]: 1.2 µM

Cc1c(-c2ccc(Cl)c(C(=O)N(C)C)c2)sc2nc(N)[nH]c(=O)c12 [SAV-7626]
inhibition at 25 µM [1, 4]: -4.6%
Kd [2]: 6.4 µM

Cc1c(-c2cccc(C#N)c2F)sc2nc(N)[nH]c(=O)c12 [SAV-7627]
inhibition at 50 µM [1, 5]: 71.2%
IC50 [1, 6]: 10 µM
Kd [2]: 4.2 µM

Cc1c(-c2ccc(F)cc2)sc2nc(N)[nH]c(=O)c12 [SAV-7601]
inhibition at 50 µM [1, 5]: 69.2%
Kd [2]: 1.1 µM

Cc1c(-c2ccccc2F)sc2nc(N)[nH]c(=O)c12 [SAV-7598]
inhibition at 2 µM [1, 9]: 11.4%
Kd [2]: 3.7 µM

Cc1c(-c2ccccc2)sc2nc(NCCO)[nH]c(=O)c12 [SAV-7577]
inhibition at 20 µM [1, 3]: 2.85%
Kd [2]: 6.8 µM

Cc1c(-c2cc(CN(C)C)ccc2F)sc2nc(N)[nH]c(=O)c12 [SAV-7630]
inhibition at 50 µM [1, 8]: 23.2%
Kd [2]: 57 µM

Cc1c(-c2ccc(F)nc2F)sc2nc(N)[nH]c(=O)c12 [SAV-7621]
inhibition at 25 µM ([1]; Influenza A virus, H3N2, read-out: CPE H3N2 reduction (%), activity conc 25 (μM per method)): 14.3%
Kd [2]: 70 µM

Cc1c(-c2cnccn2)sc2nc(N)[nH]c(=O)c12 [SAV-7608]
inhibition at 10 µM [1, 3]: 3.8%
Kd [2]: 5.7 µM

Cc1c(-c2cccnc2)sc2nc(N)[nH]c(=O)c12 [SAV-7589]
inhibition at 50 µM [1, 5]: 63.1%
IC50 [1, 6]: 27 µM
Kd [2]: 10 µM

Cc1c(-c2ccnc(C(F)(F)F)c2)sc2nc(N)[nH]c(=O)c12 [SAV-7625]
inhibition at 2.5 µM [1, 3]: -4%
Kd [2]: 12 µM

Cc1c(-c2cnn(C)c2)sc2nc(N)[nH]c(=O)c12 [SAV-7603]
Kd [2]: 42 µM

Cc1c(-c2cccc(C(F)(F)F)c2)sc2nc(N)[nH]c(=O)c12 [SAV-7581]
inhibition at 50 µM [1, 5]: 87.8%
IC50 [1, 6]: 17 µM
Kd [2]: 1.4 µM

Cc1cccc(-c2sc3nc(N)[nH]c(=O)c3c2C)c1 [SAV-7607]
inhibition at 2 µM [1, 9]: -0.4%
Kd [2]: 5.4 µM

Cc1c(-c2c(F)ccc(Cl)c2F)sc2nc(N)[nH]c(=O)c12 [SAV-7637]
inhibition at 5 µM [1, 7]: 1.5%
IC50 [1, 6]: 18 µM
Kd [2]: 1.1 µM

Cc1c(-c2ccc(Cl)nc2)sc2nc(N)[nH]c(=O)c12 [SAV-7632]
inhibition at 50 µM [1, 8]: 53%
Kd [2]: 0.75 µM

Nc1nc2sc(Cc3ccccc3)cc2c(=O)[nH]1 [SAV-7517]
inhibition at 10 µM [1, 3]: -2.64%
Kd [2]: 13 µM

Cc1c(-c2ccccc2)sc2nc(NCCCO)[nH]c(=O)c12 [SAV-7582]
inhibition at 50 µM [1, 5]: 53.1%
Kd [2]: 4.2 µM

Cc1c(-c2ccc(F)c(C(F)(F)F)c2)sc2nc(N)[nH]c(=O)c12 [SAV-7613]
inhibition at 50 µM [1, 5]: 2.5%
Kd [2]: 1.5 µM

Cc1c(-c2cccc(Cl)c2F)sc2nc(N)[nH]c(=O)c12 [SAV-7616]
inhibition at 10 µM [1, 3]: 68.7%
IC50 [1, 6]: 34 µM
Kd [2]: 3.1 µM

Cc1c(-c2cc(C#N)ccc2Cl)sc2nc(N)[nH]c(=O)c12 [SAV-7617]
inhibition at 2 µM [1, 9]: 5.1%
Kd [2]: 2 µM

Nc1nc2sc(-c3ccccc3)cc2c(=O)[nH]1 [SAV-7549]
inhibition at 50 µM [1, 5]: -2.4%
Kd [2]: 8.8 µM

Cc1c(-c2cccc(Cl)c2)sc2nc(N)[nH]c(=O)c12 [SAV-7580]
IC50 ([1]; Influenza A virus, H3N2, read-out: CPE H3N2 IC50 [μM]): 11 µM
CPE H3N2 reduction (%) ([1]; activity conc 2 (μM per method)): 89.8%
Kd [2]: 8.9 µM

Cc1c(-c2cccc(F)c2)sc2nc(N)[nH]c(=O)c12
melting point: 310 to 330 °C

Nc1nc2sc(-c3ccccc3)cc2c(=O)[nH]1
melting point: > 360 °C

Cc1c(-c2ccc(F)c(C#N)c2)sc2nc(N)[nH]c(=O)c12 [SAV-7611]
inhibition at 2 µM [1, 9]: -1%
Kd [2]: 1.1 µM

CN(OCc1ccccc1)C(=O)c1cc2ccccc2cn1
melting point: 70 to 75 °C
